Assay results: US4612371A, “Anthracycline antibiotics” (Sanraku Incorporated, priority 1984, dated 1986)
Values after ≈ are worked out from the molar mass of the structure shown.

What was measured:
[1] = tested on: mouse leukemia L1210 cells; experiment: Inhibition of RNA synthesis in L1210 culture cells (14C-uridine intake); format: cell-based; conditions: read-out: 50% Inhibitory Concentration (IC50), Inhibition of RNA Synthesis
Protocol: (§1) L 1210 cells of 5×10^4 /ml were inoculated on, e.g., RPM 11640 medium (Rosewellberg Research Laboratories) containing 20% bovine serum and, the substances of the present invention were added thereto, respectively, in a concentration of 0.02 to 0.25 μg/ml in a similar fashion. Cultivation was performed at 37° C. in a carbon dioxide culture bottle. Then, a 50% inhibitory action against proliferation was determined based on control fraction. Further, the aforesaid L 1210 culture cell was suspended in 10% bovine serum-containing RPM 11640 medium in a concentration of 5×10^5 /ml. After cultivating at 37° C. for 1 to 2 hours in a carbon dioxide culture bottle, the substance was added in various concentrations and, ^14 C-uridine (0.05 μCi/ml) or ^14 C-thymidine (0.05 μCi/ml) was further added thereto 15 minutes after followed by culturing at 37° C. for 60 minutes. A cold 10% trichloro-acetic acid was added to the reaction solution to discontinue the reaction and at the same time, matters insoluble in the acid were precipitated. After washing further twice with cold 5% trichloroacetic acid, the insoluble matters were dissolved in formic acid and, radioactivity was measured. A 50% intake inhibitory concentration was determined from an intake rate of radioactivity, based on the control fraction to which no substance was added.

[2] = tested on: mouse leukemia L1210 cells; experiment: Inhibition of DNA synthesis in L1210 culture cells (14C-thymidine intake); format: cell-based; conditions: read-out: 50% Inhibitory Concentration (IC50), Inhibition of DNA Synthesis
Protocol: as §1

[3] = tested on: mouse leukemia L1210 cells; experiment: Inhibition of proliferation of cultured mouse leukemia L1210 cells; format: cell-based
Protocol: as §1

mouse L1210 leukemia = experiment: In vivo anti-tumor activity against mouse L1210 leukemia; conditions: day 1 to day 10, CDF1 mice, n = 6
Source text: Inoculation: 1 × 10^5 cell/mouse (i.p.)
Treatment: day 1 to day 10 (i.p.)

[4] = 1 h, L1210 cells 5×10^5/ml, 10% bovine serum, 14C-uridine, 60 minutes, 37° C.
[5] = 1 h, L1210 cells 5×10^5/ml, 10% bovine serum, 14C-thymidine, 60 minutes, 37° C.
[6] = L1210 cells 5×10^4/ml, 20% bovine serum, 37° C., read-out: 50% Inhibitory Concentration (IC50), Inhibition of Cell Proliferation

| SMILES | IC50 [1, 4] | IC50 [2, 5] | IC50 [3, 6] | other results |
| --- | --- | --- | --- | --- |
| CC(O)C1=Cc2c(O)c3c(c(O)c2[C@@H](O[C@H]2C[C@H](N)[C@H](O)[C@H](C)O2)C1)C(=O)c1c(O)cccc1C3=O (stereo partly shown) [D788-8] | 1.58 µg/mL (≈ 3.18 µM) | 3.4 µg/mL (≈ 6.83 µM) | 0.22 µg/mL (≈ 0.442 µM) | – |
| CCC1(O)CC(OC2CC(N)C(O)C(C)O2)c2c(O)c3c(c(O)c2C1C(=O)OC)C(=O)c1cccc(O)c1C3=O (stereo not shown) [D788-6] | – | – | – | IC50 ([1]; L1210, 1 h): 1.3 µg/mL (≈ 2.33 µM); IC50 ([2]; L1210, 1 h): 2.6 µg/mL (≈ 4.66 µM); IC50 ([3]; L1210, read-out: 50% Inhibitory Concentration (IC50), Inhibition of Cell Proliferation): 0.25 µg/mL (≈ 0.448 µM) |
| CCC1(O)CC(OC2CC(N)C(O)C(C)O2)c2c(O)c3c(c(O)c2C1O)C(=O)c1cccc(O)c1C3=O (stereo not shown) [D788-7] | 0.68 µg/mL (≈ 1.32 µM) | 0.29 µg/mL (≈ 0.563 µM) | 0.0003 µg/mL (≈ 0.000582 µM) | Anti-tumor Effect T/C(%) (mouse L1210 leukemia; 4 μg/kg/day i.p.): 102%; Anti-tumor Effect T/C(%) (mouse L1210 leukemia; 8 μg/kg/day i.p.): 104%; Anti-tumor Effect T/C(%) (mouse L1210 leukemia; 16 μg/kg/day i.p.): 133%; Anti-tumor Effect T/C(%) (mouse L1210 leukemia; 32 μg/kg/day i.p.): 187%; Anti-tumor Effect T/C(%) (mouse L1210 leukemia; 62.5 μg/kg/day i.p.): 204%; Anti-tumor Effect T/C(%) (mouse L1210 leukemia; 125 μg/kg/day i.p.): 172%; Anti-tumor Effect T/C(%) (mouse L1210 leukemia; 250 μg/kg/day i.p.): 100% |

Continued, in another order:

| IC50 [1, 4] | IC50 [2, 5] | IC50 [3, 6] | SMILES | other results |
| --- | --- | --- | --- | --- |
| 2.59 µg/mL (≈ 4.53 µM) | 4.2 µg/mL (≈ 7.35 µM) | 0.22 µg/mL (≈ 0.385 µM) | COC(=O)C1c2c(O)c3c(c(O)c2C(OC2CC(N)C(O)C(C)O2)CC1(O)C(C)=O)C(=O)c1c(O)cccc1C3=O (stereo not shown) [D788-9] | – |
| 10 µg/mL (≈ 17.9 µM) | 10 µg/mL (≈ 17.9 µM) | 0.083 µg/mL (≈ 0.148 µM) | CC1OC(OC2CC(O)(C(C)O)C(C(=O)O)c3c(O)c4c(c(O)c32)C(=O)c2c(O)cccc2C4=O)CC(N)C1O (stereo not shown) [D788-10] | – |
